Results published in patent publication US10683292B2, “Purine and 3-deazapurine analogues as choline kinase inhibitors” (NERVIANO MEDICAL SCIENCES S.R.L., priority 2016, dated 2020).

Columns and labels:
[1] = test system: MDA-MB-468 breast cancer cell line; experiment: Phosphocholine determination in cell medium culture (cell supernatants); type: cell-based; conditions: compound 2 μM
Protocol: For the determination of phosphocholine in cells, extracts were prepared according to ref. Cancer Res., 2005, 65, 9369-9376 with some modifications. MDA-MB-468 breast cancer cell line was plated at 1×10^6 cells in 10 cm petri dish culture in RPMI, 10% FCS culture medium. After 24 h, fresh medium and a compound of general formula (I) were added for further 24 h. At the end of the treatment, the cells were trypsinised, counted and the diameter was determined using a Coulter Counter (Multisizer 3, Beckman). Cells were washed twice with ice-cold physiologic saline solution and 2×10^6 cells resuspended in 0.3 mL ice-cold twice-distilled water. […]
Phosphocholine concentration levels were assessed in the supernatants using an Ultra High Pressure Liquid Chromatography system (UPLC®, Waters) coupled with a triple quadrupoles mass spectrometer (TQD, Waters) operating in single reaction monitoring mode (SRM). […] The monitored transitions were m/z 184.00 to 85.7 (collision energy 24 eV) for phosphocholine and m/z 103.0 to 57.5 (collision energy 13 eV) for DMG. […]
For the determination of phosphocholine in cell medium culture, cell culture supernatants (500 μL) were denatured by adding 100 μL of trichloroacetic acid (TCA) 1M containing dimethyl glicine (DMG) (100 μM), used as internal standard. […] The supernatants were subsequently analyzed for phosphocholine determination.

[2] = test system: MDA-MB-468 breast cancer cell line; experiment: Phosphocholine determination assay (mechanism of action in cells), cell extracts; type: cell-based; conditions: 24 h
Protocol: Phosphocholine Determination Assay (Mechanism of Action in Cells)
After 24 h, fresh medium and a compound of general formula (I) were added for further 24 h. At the end of the treatment, the cells were trypsinised, counted and the diameter was determined using a Coulter Counter (Multisizer 3, Beckman). […] Then, 0.7 mL ice-cold absolut EtOH were added (final ratio EtOH/H2O 70:30, v/v). After 24 h at −20° C. the samples were sonicated and centrifuged at 14,000×g for 30 minutes.
Phosphocholine concentration levels were assessed in the supernatants using an Ultra High Pressure Liquid Chromatography system (UPLC®, Waters) coupled with a triple quadrupoles mass spectrometer (TQD, Waters) operating in single reaction monitoring mode (SRM). Analyses were performed using Acquity HSS T3 column 2.1×50 mm column, 1.8 μm particle size. […] Waters TQD triple quad mass spectrometer was equipped with an electrospray ion source operating in the positive mode. Source parameters were set as follows: desolvation gas flow 1000 L/h, cone gas flow 50 L/h; collision gas flow 0.2 mL/min; source temperature 130° C.; desolvation temperature 450° C. Dimethyl glicine (DMG) was added to samples as internal standard at 100 μM final concentration. […] The concentration of PCho in the sample was normalized to the total volume of cells (number cells×volume of single cell considered like a sphere).

Δ49N-hChoKα = target: T1, Δ49N-hChoKα (Homo sapiens, UniProt P35790); experiment: Biochemical kinase inhibition assay (Kinase-Glo Luminescent Kinase Assay) on Δ49N-hChoKα; conditions: ATP 5 μM, choline 5 μM, 60 minutes at rt; read-out: IC50 ChoKα
T1 construct: cDNA fragment 362-1534, corresponding to aminoacids 50-457; GST (N, cleaved yes); Prescission Protease recognition site (N, cleaved yes); made in house; host or cells: Escherichia coli BL21pLysS (DE3)
T1 sequence (P35790 50-457, stated change not applied): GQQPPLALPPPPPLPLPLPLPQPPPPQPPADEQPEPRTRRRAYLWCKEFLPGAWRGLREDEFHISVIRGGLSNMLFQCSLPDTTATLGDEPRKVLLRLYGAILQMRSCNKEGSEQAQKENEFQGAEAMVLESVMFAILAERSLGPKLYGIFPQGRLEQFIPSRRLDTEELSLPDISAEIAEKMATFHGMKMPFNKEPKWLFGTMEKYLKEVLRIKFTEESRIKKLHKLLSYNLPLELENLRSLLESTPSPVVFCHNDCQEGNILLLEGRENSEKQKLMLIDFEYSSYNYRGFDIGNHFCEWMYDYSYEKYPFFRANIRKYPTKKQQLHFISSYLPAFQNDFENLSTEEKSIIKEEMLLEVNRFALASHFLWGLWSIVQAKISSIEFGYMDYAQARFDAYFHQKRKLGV
Protocol: (§1) The biochemical activity of compounds against Δ49N-ChoKα and ChoKβ FL were determined using the Kinase-Glo™ Luminescent Kinase Assay (Promega cat. V6711).
(§2) Compounds were 3-fold serially diluted from 10 to 0.0005 μM, then incubated for 60 minutes at rt in the presence of ATP 5 μM, choline (5 μM for ChoKα and 20 μM for ChoKβ) and enzyme in a final volume of 19 μL of kinase buffer (50 mM Hepes pH 7.5, 10 mM MgCl2, 1 mM DTT, 3 μM Na3VO4 and 0.2 mg/mL BSA). The final concentration of DMSO was 1%.
(§3) At the end of the incubation, an amount of 19 μL of KinaseGlo Reagent was added to each well to stop the reaction and after 30 minutes the luminescence signal was measured using ViewLux reader (Perkin Elmer).
(§4) The data per each molecule are analyzed by an internally customized version of the SW package “Assay Explorer” which provides sigmoidal fittings of the ten-dilution curves for IC50 determination using a 4 parameter logistic equation: y=bottom+(top−bottom)/(1+10^((log IC50−x)*slope)) where x is the logarithm of the inhibitor concentration, y is the response; y starts at bottom and goes to top with a sigmoid shape.

hChoKβ FL = target: T2, hChoKβ FL (Homo sapiens, UniProt Q9Y259); experiment: Biochemical kinase inhibition assay (Kinase-Glo Luminescent Kinase Assay) on hChoKβ FL; conditions: ATP 5 μM, choline 20 μM, 60 minutes at rt; read-out: IC50 ChoKβ
T2 construct: hChoKβ full length (FL), corresponding to aminoacids 2-395; GST (N, cleaved yes); Prescission Protease recognition site (N, cleaved yes); made in house; host or cells: Escherichia coli BL21pLysS (DE3)
T2 sequence (Q9Y259 2-395): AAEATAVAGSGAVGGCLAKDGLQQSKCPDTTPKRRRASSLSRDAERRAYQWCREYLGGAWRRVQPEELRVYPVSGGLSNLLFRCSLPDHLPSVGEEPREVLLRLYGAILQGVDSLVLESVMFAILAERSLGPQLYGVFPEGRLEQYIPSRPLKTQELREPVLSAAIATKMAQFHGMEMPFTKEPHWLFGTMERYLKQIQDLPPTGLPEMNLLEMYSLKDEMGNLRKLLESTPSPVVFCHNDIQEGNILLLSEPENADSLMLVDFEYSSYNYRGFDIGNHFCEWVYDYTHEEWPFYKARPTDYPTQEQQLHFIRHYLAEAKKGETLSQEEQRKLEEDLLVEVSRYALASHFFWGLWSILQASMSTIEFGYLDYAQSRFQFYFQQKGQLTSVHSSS
Protocol: as §1, §2, §3, §4

For `Nc1nc(Cl)nc2c1ncn2[C@H]1CC[C@@H](C(=O)Nc2ncc(Cl)s2)CC1` [cpd 114, cis-4-(6-amino-2-chloro-9H-purin-9-yl)-N-(5-chloro-1,3-thiazol-2-yl)cyclohexanecarboxamide], the inhibition at 2 µM ([1]; Homo sapiens, MDA-MB-468, vs untreated control) was 66%, the “[Phosphocholine] in MDA-MB-468 cell supernatants” value [1] was 2.50 µM and the inhibition at 0.4 µM ([2]; Homo sapiens, MDA-MB-468, compound 0.4 μM, vs untreated control) was 37%. For the same molecule, the inhibition at 2 µM ([2]; Homo sapiens, MDA-MB-468, compound 2 μM, vs untreated control) was 76%, the “[Phosphocholine] in MDA-MB-468 cell extracts” value ([2]; compound 0.4 μM) was 5.21 mM and the “[Phosphocholine] in MDA-MB-468 cell extracts” value ([2]; compound 2 μM) was 1.98 mM. The IC50 (Δ49N-hChoKα) was 0.034 µM and the IC50 (hChoKβ FL) was 4.69 µM.
